Earlier results on one compound are cited in patent US20150148324A1 (VALPHARMA INTERNATIONAL S.P.A., priority 2012, published 2015).

This data set concerns uterine fibroma. The conditions noted are these: daily oral 5 mg for 6 months, versus higher doses.

Regarding `CC#C[C@]1(O)CC[C@H]2[C@@H]3CCC4=CC(=O)CCC4=C3[C@@H](c3ccc(N(C)C)cc3)C[C@@]21C` [Mifepristone], the “effect in the treatment of uterine fibroma” value is “effects comparable with those of higher doses of Mifepristone”.
